≈ marks a conversion by molar mass, not a printed value. Read-outs that look alike come from different tables or passages of the source.
How the values were obtained:
Type in all cases: cell-based
[1] = system: Enterococcus faecium 752 (VRE, Van A); test: MIC, broth microdilution, EFcm 752; details: for MIC: read-out: MIC E FCM 752
Description: (§1) Antibacterial activity in vitro is investigated by broth microdilution method in Meuller-Hinton broth as recommended by NCCLS. All strains tested are clinical isolates either sensitive or resistant to natural glycopeptides. MIC values were determined using the CLSI-recommended broth microdilution procedure (Clinical and Laboratory Standards Institute, Methods for Dilution Antimicrobial Susceptibility Tests for Bacteria That Grow Aerobically; Approved Standard-Seventh Edition.). Automated liquid handlers (Multidrop 384, Labsystems, Helsinki, Finland; Biomek 2000 and Multimek 96, Beckman Coulter, Fullerton Calif.) were used to conduct serial dilutions and liquid transfers. The MIC value for vancomycin is given for comparison. The abbreviations for organisms tested are as follow: SA 100—Staphylococcus aureus 100 (ATCC 29213); SA 757—Staphylococcus aureus 757 (MRSA); SA 2012—Staphylococcus aureus 2012 (VISA); SE 835—Staphylococcus epidermidis 835; SE 831—Staphylococcus epidermidis 831 (MRSE); EFc 101—Enterococcus faecalis 101 (ATCC 29212); EFc 848—Enterococcus faecalis 848 (VRE, Van A); EFcm 800—Enterococcus faecium 800; EFcm 752—Enterococcus faecium 752 (VRE, Van A); SPNE 1195—Streptococcus pneumoniae 1195 (ATCC 49619); SPY 712—Streptococcus pyogenes 712.

[2] = system: Streptococcus pneumoniae 1195 (ATCC 49619); test: MIC, broth microdilution, SPNE 1195; details: for MIC: Streptococcus pneumoniae
Description: as §1

Enterococcus faecium 800 = test: MIC, broth microdilution, EFcm 800
Description: as §1

[3] = system: Enterococcus faecalis 101 (ATCC 29212); test: MIC, broth microdilution, EFc 101; details: for MIC: Enterococcus faecalis
Description: as §1

[4] = system: Staphylococcus aureus 100 (ATCC 29213); test: MIC, broth microdilution, SA 100; details: for MIC: Staphylococcus aureus
Description: as §1

[5] = system: Staphylococcus aureus 2012 (VISA); test: MIC, broth microdilution, SA 2012
Description: as §1

[6] = system: Enterococcus faecalis 848 (VRE, Van A); test: MIC, broth microdilution, EFc 848; details: for MIC: read-out: MIC E FC 848
Description: as §1

[7] = system: Staphylococcus aureus 757 (MRSA); test: MIC, broth microdilution, SA 757
Description: as §1

[8] = system: Streptococcus pyogenes 712; test: MIC, broth microdilution, SPY 712
Description: as §1

[9] = system: Staphylococcus epidermidis 835; test: MIC, broth microdilution, SE 835
Description: as §1

[10] = system: Staphylococcus epidermidis 831 (MRSE); test: MIC, broth microdilution, SE 831; details: for MIC: Staphylococcus epidermidis, read-out: MIC SE 831
Description: as §1

[11] = Table 2, VRE, Van A, in the presence of 0.002% Polysorbate 80, class symbols
[12] = ATCC49619, Table 2, in the presence of 0.002% Polysorbate 80, class symbols, read-out: MIC S PNE 1195
[13] = Enterococcus faecium, 800, Table 2, in the presence of 0.002% Polysorbate 80, class symbols, read-out: MIC E FCM 800
[14] = ATCC29212, Table 2, in the presence of 0.002% Polysorbate 80, class symbols, read-out: MIC E FC 101
[15] = ATCC29213, Table 2, in the presence of 0.002% Polysorbate 80, class symbols, read-out: MIC SA 100
[16] = Table 2, in the presence of 0.002% Polysorbate 80, class symbols, read-out: MIC SA 2012
[17] = Table 2, in the presence of 0.002% Polysorbate 80, class symbols, read-out: MIC SA 757
[18] = Streptococcus pyogenes, 712, Table 2, in the presence of 0.002% Polysorbate 80, class symbols, read-out: MIC S PYO 712
[19] = Staphylococcus epidermidis, 835, Table 2, in the presence of 0.002% Polysorbate 80, class symbols, read-out: MIC SE 835
[20] = Table 2, in the presence of 0.002% Polysorbate 80, class symbols
[21] = Table 2, VRE, Van A, in the presence of 0.002% Polysorbate 80, numeric value, comparison
[22] = Table 2, in the presence of 0.002% Polysorbate 80, numeric value, comparison
[23] = Table 1, VRE, Van A, class symbols

`CNCCOc1ccc(C(=O)NC(=O)C[C@@H]2NC(=O)[C@H](NC(=O)[C@@H](CC(C)C)NC)[C@H](O)c3ccc(c(Cl)c3)Oc3cc4cc(c3O[C@@H]3O[C@H](CO)[C@@H](O)[C@H](O)[C@H]3O)Oc3ccc(cc3Cl)[C@@H](O)[C@@H]3NC(=O)[C@H](NC(=O)[C@@H]4NC2=O)c2ccc(O)c(c2)-c2c(O)cc(O)cc2[C@@H](C(=O)NC2C4CC5CC(C4)CC2C5)NC3=O)cc1OCCNC` (stereo partly shown) [Compound 160] showed an MIC [1, 11] of 4 to 8 mg/L, an MIC [2, 12] of 0.5 to 1 mg/L and an MIC (Enterococcus faecium 800; [13]) of 0.01 to 0.5 mg/L. It also gave an MIC [3, 14] of 0.5 to 1 mg/L, an MIC [4, 15] of 1 to 2 mg/L and an MIC [5, 16] of 1 to 2 mg/L. The MIC [6, 11] was > 16 mg/L, the MIC [7, 17] was 1 to 2 mg/L and the MIC [8, 18] was 0.01 to 0.5 mg/L. The MIC [9, 19] was 0.5 to 1 mg/L and the MIC [10, 20] was 0.01 to 0.5 mg/L.
With `CN[C@H](CC(C)C)C(=O)N[C@H]1C(=O)N[C@@H](CC(N)=O)C(=O)N[C@H]2C(=O)N[C@H]3C(=O)N[C@H](C(=O)N[C@H](C(=O)O)c4cc(O)cc(O)c4-c4cc3ccc4O)[C@H](O)c3ccc(c(Cl)c3)Oc3cc2cc(c3O[C@@H]2O[C@H](CO)[C@@H](O)[C@H](O)[C@H]2O[C@H]2C[C@](C)(N)[C@H](O)[C@H](C)O2)Oc2ccc(cc2Cl)[C@H]1O` [Vancomycin, vancomycin, reference compound] the “MIC E FCM 752” value [1, 21] was >64 mg/L, the MIC [1] was > 64 mg/L and the MIC ([2]; ATCC49619, read-out: MIC S PNE 1195) was 0.25 mg/L (≈ 0.173 µM). The “MIC S PNE 1195” value [2, 22] was 0.25 mg/L, the MIC (Enterococcus faecium 800; Enterococcus faecium, 800, read-out: MIC E FCM 800) was 1 mg/L (≈ 0.69 µM) and the “MIC E FCM 800” value (Enterococcus faecium 800; [22]) was 1 mg/L. For the same molecule, the MIC ([3]; ATCC29212, read-out: MIC E FC 101) was 4 mg/L (≈ 2.76 µM), the “MIC E FC 101” value [3, 22] was 4 mg/L and the MIC ([4]; ATCC29213, read-out: MIC SA 100) was 1 mg/L (≈ 0.69 µM). For the same molecule, the “MIC SA 100” value [4, 22] was 1 mg/L, the MIC ([5]; read-out: MIC SA 2012, Table 1, numeric value, comparison) was 8 mg/L (≈ 5.52 µM) and the MIC ([5]; read-out: MIC SA 2012, Table 2, in the presence of 0.002% Polysorbate 80, numeric value, comparison) was 4 mg/L. The “MIC E FC 848” value [6, 21] was >64 mg/L, the MIC [6] was > 64 mg/L and the MIC ([7]; read-out: MIC SA 757, Table 1, numeric value, comparison) was 1 mg/L (≈ 0.69 µM). For the same molecule, the MIC ([7]; read-out: MIC SA 757, Table 2, in the presence of 0.002% Polysorbate 80, numeric value, comparison) was 2 mg/L, the MIC ([8]; Streptococcus pyogenes, 712, read-out: MIC S PYO 712) was 0.5 mg/L (≈ 0.345 µM) and the “MIC S PYO 712” value [8, 22] was 0.5 mg/L. It also gave an MIC ([9]; Staphylococcus epidermidis, 835, read-out: MIC SE 835, Table 1, numeric value, comparison) of 4 mg/L (≈ 2.76 µM), an MIC ([9]; Staphylococcus epidermidis, 835, read-out: MIC SE 835, Table 2, in the presence of 0.002% Polysorbate 80, numeric value, comparison) of 2 mg/L and an MIC [10] of 2 mg/L (≈ 1.38 µM). The “MIC SE 831” value [10, 22] was 2 mg/L.
`CCCCOc1ccc(S(=O)(=O)NC(=O)C[C@@H]2NC(=O)[C@H](NC(=O)[C@@H](CC(C)C)NC)[C@H](O)c3ccc(c(Cl)c3)Oc3cc4cc(c3O[C@@H]3O[C@H](CN)[C@@H](O)[C@H](O)[C@H]3O)Oc3ccc(cc3Cl)[C@@H](O)[C@@H]3NC(=O)[C@H](NC(=O)[C@@H]4NC2=O)c2ccc(O)c(c2)-c2c(O)cc(O)cc2[C@@H](C(=O)NC2C4CC5CC(C4)CC2C5)NC3=O)cc1` (stereo partly shown) [Compound 99] gave an MIC [1, 23] of 0.01 to 0.5 mg/L (≈ 0.00606 to 0.303 µM), an MIC ([2]; ATCC49619, Table 1, class symbols, read-out: MIC S PNE 1195) of 0.5 to 1 mg/L (≈ 0.303 to 0.606 µM) and an MIC (Enterococcus faecium 800; Enterococcus faecium, 800, Table 1, class symbols, read-out: MIC E FCM 800) of 0.01 to 0.5 mg/L (≈ 0.00606 to 0.303 µM). It also gave an MIC ([3]; ATCC29212, Table 1, class symbols, read-out: MIC E FC 101) of 0.01 to 0.5 mg/L (≈ 0.00606 to 0.303 µM), an MIC ([4]; ATCC29213, Table 1, class symbols, read-out: MIC SA 100) of 0.01 to 0.5 mg/L (≈ 0.00606 to 0.303 µM) and an MIC ([5]; Table 1, class symbols, read-out: MIC SA 2012) of 0.5 to 1 mg/L (≈ 0.303 to 0.606 µM). It also gave an MIC [6, 23] of 0.5 to 1 mg/L (≈ 0.303 to 0.606 µM), an MIC ([7]; Table 1, class symbols, read-out: MIC SA 757) of 0.01 to 0.5 mg/L (≈ 0.00606 to 0.303 µM) and an MIC ([8]; Streptococcus pyogenes, 712, Table 1, class symbols, read-out: MIC S PYO 712) of 0.01 to 0.5 mg/L (≈ 0.00606 to 0.303 µM). For the same molecule, the MIC ([9]; Staphylococcus epidermidis, 835, Table 1, class symbols, read-out: MIC SE 835) was 0.01 to 0.5 mg/L (≈ 0.00606 to 0.303 µM) and the MIC ([10]; Table 1, class symbols) was 0.01 to 0.5 mg/L (≈ 0.00606 to 0.303 µM).
`CNCCOc1ccc(C(=O)NC(=O)C[C@@H]2NC(=O)[C@H](NC(=O)[C@@H](CC(C)C)NC)[C@H](O)c3ccc(c(Cl)c3)Oc3cc4cc(c3O[C@@H]3O[C@H](CO)[C@@H](O)[C@H](O)[C@H]3O[C@H]3C[C@](C)(N)[C@H](O)[C@H](C)O3)Oc3ccc(cc3Cl)[C@@H](O)[C@@H]3NC(=O)[C@H](NC(=O)[C@@H]4NC2=O)c2ccc(O)c(c2)-c2c(O)cc(O)cc2[C@@H](C(=O)NC2C4CC5CC(C4)CC2C5)NC3=O)cc1OCCNC` (stereo partly shown) [Compound 152] showed an MIC [1, 11] of 4 to 8 mg/L, an MIC [2, 12] of 0.01 to 0.5 mg/L and an MIC (Enterococcus faecium 800; [13]) of 0.01 to 0.5 mg/L. The MIC [3, 14] was 0.01 to 0.5 mg/L, the MIC [4, 15] was 0.01 to 0.5 mg/L and the MIC [5, 16] was 1 to 2 mg/L. The MIC [6, 11] was > 16 mg/L, the MIC [7, 17] was 0.01 to 0.5 mg/L and the MIC [8, 18] was 0.01 to 0.5 mg/L. It also gave an MIC [9, 19] of 0.01 to 0.5 mg/L and an MIC [10, 20] of 0.01 to 0.5 mg/L.

From US20120252741A1, “NOVEL SEMI-SYNTHETIC GLYCOPEPTIDES AS ANTIBACTERIAL AGENTS” (priority 2008, published 2012)
